In experiment [1] the target is T1, human PPARalpha receptor (Homo sapiens, UniProt Q07869).
T1 construct: expressed in transfected cells; host or cells: HEK293 (DSMZ ACC 305)
T1 sequence (Q07869 239-466 limits assumed): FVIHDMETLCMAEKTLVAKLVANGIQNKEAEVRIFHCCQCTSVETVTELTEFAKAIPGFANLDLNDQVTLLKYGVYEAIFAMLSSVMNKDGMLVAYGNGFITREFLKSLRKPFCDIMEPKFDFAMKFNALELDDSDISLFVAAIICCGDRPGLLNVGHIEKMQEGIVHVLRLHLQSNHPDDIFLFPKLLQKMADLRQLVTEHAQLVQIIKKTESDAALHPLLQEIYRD
Kind of experiment: cellular GAL4 reporter gene assay (M1H) in HEK293 cells, PPARalpha. The experiment is classed as cell-based. To be noted: agonist mode. How it is done:
The compounds BIZ-102 (Example 2), BIZ-103 (Example 5) and BIZ-106 were tested at the human PPARalpha receptor in a cellular GAL4 Reporter gene assay. The assay was run in agonist and antagonist mode to detect agonistic as well as antagonistic activities of the tested compounds.
Performance of the GAL4 cellular reporter assay:
Day 1: Cells were seeded in 96 well plates in plating medium (MEM with serum), incubation overnight at 37° C., 5% CO2.
Day 2: Removal of plating medium
Addition of PEI-based transfection agent
Incubation for 4-6 hours at 37° C., 5% CO2
Addition of assay medium (MEM with serum)
Addition of compounds (dilution series was generated in MEM with serum)
Incubation overnight at 37° C., 5% CO2
Day 3: Removal of assay medium (16-20 hours after compound addition)
Addition of Passive Lysis Buffer (Promega)
15 mins incubation at room temperature
Addition of luciferase buffers and measurement in a dual-flash procedure
(§1) The assays were done in HEK293 cells (DSMZ ACC 305). The plasmids used in the GAL4 assay system were derivatives of Stratagene's M2H plasmids: the reporter plasmid pFR-Luc (containing a synthetic promoter with five tandem repeats of the yeast GAL4 binding sites that control expression of the Photinus pyralis (American firefly) luciferase gene), and pCMV-BD (for fusions of nuclear receptor ligand binding domains to the DNA-binding domain of the yeast protein GAL4). In order to improve experimental accuracy, a second reporter—Renilla reniformis luciferase, driven by a constitutive promoter—was included as an internal control. Using the control reporter (Renilla Luciferase) allowed corrections for variations in experimental handling, e.g. transfection efficacy, cell viability, pipetting errors, cell lysis efficiency and assay efficiency.
Primary read out of the assays was loaded into PhAST (Phenex Assay and Screening Tool) and checked for assay quality (generation of SB and Zprime values). […] Within PhAST there are two measured and one calculated data layers:
LAYER1 (measured)—contains the activity values of the firefly luciferase activities and is a direct measure for modulation of the cofactor binding properties of the Nuclear Receptors by the tested compounds.
LAYER2 (measured)—contains the activity values of the renilla luciferase activities and is used as normalisation layer. As the renilla luciferase is expressed under control of the constitutively active CMV promoter, moderate well-to-well differences can be used to correct for variations in experimental handling.
LAYER3 (calculated)—is calculated according to the following equation: […]
1000*Firefly luciferase value/Renilla luciferase value
These normalised values are, as well as LAYER1, a measure for the modulation of the cofactor binding properties of the nuclear receptors by the tested compounds.

Experiment [2] deals with T2, human PPARgamma (Homo sapiens, UniProt P37231).
T2 construct: expressed in transfected cells; host or cells: HEK293 (DSMZ ACC 305)
T2 sequence (P37231 238-503 limits assumed): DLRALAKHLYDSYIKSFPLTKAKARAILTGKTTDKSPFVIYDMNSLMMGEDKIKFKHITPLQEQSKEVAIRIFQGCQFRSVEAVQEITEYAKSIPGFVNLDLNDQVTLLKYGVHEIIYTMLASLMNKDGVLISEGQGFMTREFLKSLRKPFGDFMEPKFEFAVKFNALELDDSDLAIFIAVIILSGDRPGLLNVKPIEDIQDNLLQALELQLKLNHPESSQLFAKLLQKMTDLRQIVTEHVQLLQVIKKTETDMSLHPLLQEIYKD
Kind of experiment: cellular GAL4 reporter gene assay, agonist mode, PPARgamma. Format: cell-based.
Text: as §1, with “M2H” left out, “reporter-Renilla” for “reporter—Renilla”, “promoter-was” for “promoter—was”, “efficiency. […] The compounds BIZ-102 and BIZ-103 were tested at the human PPARbeta/delta and PPARgamma receptors using the same cellular GAL4 Reporter gene assays as in Example 6. The assays were run in agonist mode to detect agonistic activities of the tested compounds.” for “efficiency.”

`CCCCC/C=C\C/C=C\C/C=C\C/C=C\CCC(CC)C(=O)O` (centres unmarked) [BIZ-102, (All-Z) 2-ethyl-5,8,11,14-eicosatetraenoic Acid]: in experiment [1] (HEK293), the “Efficacy vs. Fenofibric Acid” value amounted to 45% and the “Efficacy vs. GW7647” value turned out to be 150%. This compound came in with an EC50 in experiment [1] (HEK293, GAL4 reporter) of 350 nM. In experiment [2], the EC50 came to 1500 nM and the “PPARgamma efficacy vs. Rosiglitazone” value stood at 23%.

For the origin of these results see patent US20190284129A1, “LIPID COMPOUNDS AND COMPOSITIONS AND THEIR OPTHALMIC USE” (BIOZEP AS, priority 2015, published 2019).
